In a melting point compilation (Tetko et al.; mined from patent text by program, amines drawn as free bases though some values may be those of a salt) one finds melting point data, which are given here for 65 molecules.

Each structure is given as a SMILES string. A value given as a limit tells only on which side of the number the result lay.

One may read the melting point as the temperature, or range, at which the solid turns liquid.

As for `Cn1ccnc1Sc1c(Cl)cccc1[N+](=O)[O-]`, the melting point was in the range of 102 to 104 °C.
Regarding `CCOC(=O)c1ncc2[nH]c3cccc(Oc4ccc(Cl)cn4)c3c2c1C`, the melting point was 194 to 196 °C.
Take `CCCOc1ccc(CCl)cc1-c1nc2c(CCC)nn(C)c2c(=O)[nH]1`: the melting point was in the range of 102 to 104 °C.
The value for `CN1C(C)(C)CC(CO)CC1(C)C` was 84 to 85 °C.
In the case of `OCC1OC(n2cnc3c(NC4CCC(O)C4)ncnc32)C(O)C1O` (stereo not given) it was 208 to 210 °C; in that of `O=c1nc(-c2cccc(CN3CCC(c4ccccc4)CC3)n2)sc2ccccc12`, 207 to 208 °C; in that of `CC(=O)NC[C@H]1CN(c2ccc(-n3ccnn3)c(F)c2)C(=O)O1`, 193 to 194 °C.
For the molecule `CS(=O)(=O)Nc1cccc(OCC#N)c1`, the melting point was 91 to 92 °C.
Molecule `C/C(=C\F)CN1C(=O)c2ccccc2C1=O` came in with a melting point of 57 to 58 °C.
For the molecule `CNc1cc(Nc2ccc(OC)cc2)ncn1`, the melting point was 174 to 182 °C.
Consider `COC(=O)CC1CC(=O)Nc2ccccc21` (stereo not given), for which the melting point was 115 to 116 °C.
In the case of `CCCc1nc(-c2cccnc2)cnc1Cl` it was 207 to 209 °C.
As for `C[C@H](O)[C@@H](O)[C@@H](O)C(=O)CO`, the melting point fell in the range of 158 to 160 °C.
In the case of `CC(C)Cn1c(CNC(=O)OC(C)(C)C)c(OCCCC(F)(F)F)c2cc(O)ccc2c1=O` it was 173 to 174 °C; in that of `N#Cc1cc2c(c(C(=O)O)c1)NCCCC2`, 175 °C.
The value for `O=C(Cc1ccccc1)NC1CN(OC(=O)c2ccccc2)C1=O` (stereo not given) was 128 to 130 °C.
In turn, `COc1ccc(-c2cnn3c(N)c(-c4ccc(F)cc4)c(C)nc23)cc1` showed a melting point of 243 to 244 °C.
As to `CCCCN1CCC(CNC(=O)c2ccc(N)n3cc(CCC)nc23)CC1`, the melting point worked out at 172 °C.
In turn, `O=C(c1ccc(C2CCCCC2)cc1)c1cccnc1` showed a melting point of 52 to 54 °C.
`COc1cccc(NN=C(Cl)C(C)=O)c1`: the melting point was in the range of 117 to 119 °C.
The value for `Cn1c(=O)c(N)c(N)n(-c2ccc(Cl)cc2Cl)c1=O` was 170 to 172 °C.
In the case of `Cc1cc(C)nc(N(CCN(C)C)C(N)=O)c1` it was 88 to 89 °C; in that of `CC(C)Oc1ccc(CCCOc2cc(CCC(=O)O)n(C)n2)c(OCc2ccc(Cl)cc2Cl)c1`, 125 to 127 °C; in that of `COc1ccc2cc(CCCOCCCCCCNCC(O)c3cc(Cl)c(N)c(Cl)c3)ccc2c1` (stereo not given), 102 to 104 °C.
The value for `CCOCc1nc2c(N)nc3ccccc3c2n1CCOCCNC(=O)NC1CCCCC1` was 161 to 164 °C; that for `CCOc1nc(-c2ccc(Cl)cc2)c(CCC(=O)O)o1` was 148 to 149 °C.
The molecule `Cn1ncc2[nH]c3c(F)cccc3c(=O)c21` registered a melting point above 300 °C.
The value for `Cc1ccc(Nc2nnc(-c3ccc(SC(F)(F)F)cc3)s2)cc1Cl` was 215 to 216 °C; that for `COc1ccccc1COc1ccc(S(=O)(=O)c2ccc(C)nc2Br)cc1` was 76 to 78 °C; that for `NC(=O)c1c(F)ccc(OCc2ccc3ccccc3n2)c1F` was 216 to 218 °C.
`Cc1nc2n(c(=O)c1C(N)=O)C(C)CCC2=NNc1ccccc1` (stereo not given) gave a melting point of 235 to 237 °C.
`COC(=O)c1cc([N+](=O)[O-])c(Cl)c(S(=O)(=O)Cl)c1` gave a melting point of 92 to 94 °C.
Regarding `CCOC1CCN(c2nnc(-c3ccc(C)cc3)c(-c3ccc(C)cc3)n2)CC1`, the melting point fell in the range of 124 to 126 °C.
The molecule `COC(=O)[C@H](CSC(=O)[C@@H](C)c1ccc(CC(C)C)cc1)NC(C)=O` came in with a melting point of 75 to 77 °C.
In the case of `CCOC(=O)C(=O)CC(=O)c1cn(Cc2ccc3ccccc3n2)c2ccccc2c1=O` it was 237 to 238 °C; in that of `COc1ccc2cc(-c3cnc(Cc4ccccc4)o3)ccc2c1`, 122 to 124 °C; in that of `COc1cc(-c2cc3ccccc3[nH]2)cc(OC)c1OS(=O)(=O)c1ccccc1`, 150 °C.
In the case of `CCCC(=O)c1ccc2c(c1)C(C)C(=S)N2` (stereo not given) it was 133 to 136 °C; in that of `CC(C)(C)OC(=O)NC[C@H]1CC[C@H](C#N)CC1`, 100 to 101 °C.
In the case of `COC(=O)CC(CC(=O)OC)Sc1cc(OC)cc(OC)c1` it was 98 to 99 °C.
As to `CCOC(=O)c1ncn2c1CN(C)C(=S)c1ccccc1-2`, the melting point lay in the range of 164 to 165 °C.
In the case of `CN(C)CCCNS(=O)(=O)c1cccc([N+](=O)[O-])c1` it was 84 to 87 °C; in that of `CCOC(=O)c1cnn(-c2ccccc2N)c1O`, 151 to 154 °C; in that of `C#Cc1cc(O)cc2nc(-c3ccc(O)cc3)oc12`, 229 to 231 °C.
In the case of `O=C(c1ncc[nH]1)C1CCN(Cc2ccccc2)CC1` it was 121 °C.
In the case of `COc1cc(N)c(Cl)cc1C(=O)N[C@H]1CCN(CCNc2nc3ccccc3[nH]2)C[C@H]1OC` (relative stereo) it was 206 °C.
Consider `CCCCOCCOc1ccc(-c2ccc3c(c2)C=C(C(=O)Nc2ccc(C(O)c4ccccn4)c(OCC(F)(F)F)c2)CCN3C(=O)C(F)(F)F)cc1` (stereo not given), for which the melting point lay within 178 to 181 °C.
In the case of `Cc1cc(C2=CCN(CCCC(O)c3ccccc3)CC2)on1` (stereo not given) it was 108 to 109 °C; in that of `CCCCc1cc(OCc2ccc(-c3ccccc3C(=O)O)cc2)c2ccccc2n1`, 145 °C; in that of `OC1CSC(Oc2cc(-c3cccnc3F)ccc2Cl)C(O)C1O` (stereo not given), 165 °C.
The value for `CN1C(=O)CCC2(C)c3ccc(Sc4ccc(Cl)cc4)cc3CCC12` (single isomer, unassigned; (+)) was 122 to 124 °C.
In the case of `CC1N(CCCCS(=O)(=O)O)c2ccc3ccccc3c2C1(C)C` (stereo not given) it was 263 °C; in that of `O=C(O)CC(Cc1ccccc1)NC(=O)C1Cc2ccccc2N1S(=O)(=O)c1ccc(-c2ccc(F)cc2)cc1` (stereo not given), 87 to 90 °C.
Molecule `Cc1cccc(CCN2CCC[C@H](C(C#N)(c3ccccc3)c3ccccc3)C2)c1` had a melting point of 149 to 150 °C.
The value for `COC(=O)COC1c2ccccc2COc2ccc(OCc3ccc4cc(Cl)ccc4n3)cc21` (stereo not given) was 144 to 147 °C; that for `NCc1ccccc1C(=O)N[C@H]1CN(S(=O)(=O)O)C1=O` was 162 to 165 °C.
On to `N#Cc1cnn2c1N(C(=O)CN1CCC(Cc3ccccc3)CC1)CC=C2c1cc(Cl)ccc1Cl`, for which the melting point lay within 157 to 158 °C.
The value for `N#CSc1ccc(N)c(Br)c1` was 74 to 79 °C.
Regarding `CCCCc1c(Cl)nc(N)nc1-c1ccccc1`, the melting point is 183 to 185 °C.
As for `CCOC(=O)C1C2CCC(=O)C21` (stereo not given), the melting point lay within 36 to 38 °C.
`O=S1(=O)c2cccc3cccc(c23)N1CCN1CCC(CC2CCc3ccccc32)CC1` (stereo not given) had a melting point of 127 °C.
In the case of `COc1ccc2c(c1)CCC1C3CCC(=O)C3(C)CCC21O` (stereo not given) it was 69 to 74 °C.
In the case of `O=C(O)c1nc2n(n1)-c1cccnc1N(c1ccccc1Cl)C2` it was 155 to 163 °C; in that of `CC(=O)Nc1ccc(C=C2C(=S)c3cc(C)ccc3OC2c2ccccc2)cc1` (stereo not given), 197 to 198 °C; in that of `CC(C)N(C(=O)C(F)(F)F)c1cc2c(cc1C(=O)c1ccccc1)OCO2`, 100 to 102 °C.
